Assay results taken from PMC4467398, “Preclinical antitumor activity of ST7612AA1: a new oral thiol-based histone deacetylase (HDAC) inhibitor” (Oncotarget, 2014).

Tested on: DOHH2 and TMD8 DLBCL cells
Assay: Gene expression profiling (HumanHT-12 v4 BeadChip, limma), ST7612AA1 300 nM 8 hrs vs DMSO
Format: cell-based, human
Conditions: 300 nM 8 hrs

## CC(=O)SCCCCC[C@H](NC(=O)[C@H]1CCC(=O)N1)C(=O)Nc1ccccc1 [ST7612AA1]
  AveExpr.ST7612 1999-08-31 (probe ILMN_1659953): 8.50E-01
  AveExpr.ST7612 (probe ILMN_1816244): 7.08E-01
  AveExpr.ST7612 (probe ILMN_1827736): 8.76E-01
  AveExpr.ST7612 (probe ILMN_1909886): 7.98E-01
  AveExpr.ST7612 ABCA7 (probe ILMN_1743205): 7.64E-01
  AveExpr.ST7612 ADARB1 (probe ILMN_1679797): 7.60E-01
  AveExpr.ST7612 ALDH2 (probe ILMN_1793859): 8.03E-01
  AveExpr.ST7612 ALOX5 (probe ILMN_1680996): 8.46E-01
  AveExpr.ST7612 AMOT (probe ILMN_1792409): 7.65E-01
  AveExpr.ST7612 APAF1 (probe ILMN_1659463): 8.78E-01
  AveExpr.ST7612 APLP1 (probe ILMN_1763834): 8.17E-01
  AveExpr.ST7612 ARL6IP1 (probe ILMN_1708416): 6.93E-01
  AveExpr.ST7612 ATG2A (probe ILMN_1756006): 8.92E-01
  AveExpr.ST7612 ATP6V0C (probe ILMN_1773849): 8.22E-01
  AveExpr.ST7612 ATP6V1G2 (probe ILMN_1654541): 8.47E-01
  AveExpr.ST7612 ATP7B (probe ILMN_1722056): 8.88E-01
  AveExpr.ST7612 AVPI1 (probe ILMN_1671731): 8.94E-01
  AveExpr.ST7612 AZI1 (probe ILMN_1746206): 7.59E-01
  AveExpr.ST7612 BIK (probe ILMN_1770505): 7.57E-01
  AveExpr.ST7612 BLVRB (probe ILMN_1797793): 8.74E-01
  AveExpr.ST7612 BNIP3L (probe ILMN_1718961): 8.34E-01
  AveExpr.ST7612 BPHL (probe ILMN_1657746): 8.91E-01
  AveExpr.ST7612 C3orf34 (probe ILMN_1665217): 6.96E-01
  AveExpr.ST7612 C4orf32 (probe ILMN_1700257): 8.83E-01
  AveExpr.ST7612 C12orf52 (probe ILMN_1667857): 6.98E-01
  AveExpr.ST7612 C13orf15 (probe ILMN_1658494): 7.74E-01
  AveExpr.ST7612 C14orf173 (probe ILMN_2393450): 7.70E-01
  AveExpr.ST7612 C14orf179 (probe ILMN_1756877): 7.81E-01
  AveExpr.ST7612 CA2 (probe ILMN_2199439): 7.93E-01
  AveExpr.ST7612 CAMLG (probe ILMN_1714599): 7.30E-01
  AveExpr.ST7612 CASC4 (probe ILMN_2325574): 6.85E-01
  AveExpr.ST7612 CBX7 (probe ILMN_1657361): 7.49E-01
  AveExpr.ST7612 CCDC24 (probe ILMN_1718771): 6.89E-01
  AveExpr.ST7612 CCDC92 (probe ILMN_1731107): 8.05E-01
  AveExpr.ST7612 CD74 (probe ILMN_1761464): 8.47E-01
  AveExpr.ST7612 CD74 (probe ILMN_2379644): 7.27E-01
  AveExpr.ST7612 CDC2L6 (probe ILMN_1676891): 6.96E-01
  AveExpr.ST7612 CDC42EP5 (probe ILMN_1774982): 8.75E-01
  AveExpr.ST7612 CDK2AP2 (probe ILMN_1690653): 8.01E-01
  AveExpr.ST7612 CECR1 (probe ILMN_1751851): 8.43E-01
  AveExpr.ST7612 CLCC1 (probe ILMN_1671933): 8.48E-01
  AveExpr.ST7612 CLIC4 (probe ILMN_2063586): 7.49E-01
  AveExpr.ST7612 CMTM8 (probe ILMN_1710124): 7.00E-01
  AveExpr.ST7612 COTL1 (probe ILMN_1788283): 6.87E-01
  AveExpr.ST7612 CRIP1 (probe ILMN_1656920): 8.56E-01
  AveExpr.ST7612 CRYM (probe ILMN_1779241): 8.32E-01
  AveExpr.ST7612 CSRP1 (probe ILMN_1811921): 7.01E-01
  AveExpr.ST7612 CSTB (probe ILMN_1761797): 8.06E-01
  AveExpr.ST7612 CTSB (probe ILMN_2359742): 8.56E-01
  AveExpr.ST7612 CXADR (probe ILMN_1796925): 8.18E-01
  AveExpr.ST7612 CXorf57 (probe ILMN_1703279): 8.25E-01
  AveExpr.ST7612 CYB5R1 (probe ILMN_1729237): 7.59E-01
  AveExpr.ST7612 CYB5R3 (probe ILMN_1740441): 7.06E-01
  AveExpr.ST7612 CYP2R1 (probe ILMN_2119774): 7.88E-01
  AveExpr.ST7612 DEF8 (probe ILMN_1767509): 8.37E-01
  AveExpr.ST7612 DGCR6L (probe ILMN_3245688): 7.47E-01
  AveExpr.ST7612 DNMT3B (probe ILMN_1794692): 8.14E-01
  AveExpr.ST7612 DSTN (probe ILMN_1706426): 7.52E-01
  AveExpr.ST7612 DYNC1H1 (probe ILMN_1780302): 6.97E-01
  AveExpr.ST7612 DYNLL2 (probe ILMN_1772796): 8.61E-01
  AveExpr.ST7612 DYRK3 (probe ILMN_2400322): 6.97E-01
  AveExpr.ST7612 DYRK3 (probe ILMN_2400326): 8.26E-01
  AveExpr.ST7612 ECHS1 (probe ILMN_1718132): 7.78E-01
  AveExpr.ST7612 EGR1 (probe ILMN_1762899): 8.42E-01
  AveExpr.ST7612 ELOF1 (probe ILMN_1723185): 7.14E-01
  AveExpr.ST7612 ENC1 (probe ILMN_1779147): 7.93E-01
  AveExpr.ST7612 ENO2 (probe ILMN_1765796): 7.11E-01
  AveExpr.ST7612 ERRFI1 (probe ILMN_1665510): 7.44E-01
  AveExpr.ST7612 ESAM (probe ILMN_1668092): 7.54E-01
  AveExpr.ST7612 F11R (probe ILMN_2342033): 8.81E-01
  AveExpr.ST7612 FAM65A (probe ILMN_1680037): 7.70E-01
  AveExpr.ST7612 FAM116B (probe ILMN_1659029): 7.74E-01
  AveExpr.ST7612 FAM120B (probe ILMN_1679641): 7.62E-01
  AveExpr.ST7612 FAM149B1 (probe ILMN_3245452): 7.21E-01
  AveExpr.ST7612 FAM167A (probe ILMN_3248511): 7.13E-01
  AveExpr.ST7612 FBXO18 (probe ILMN_1729430): 7.97E-01
  AveExpr.ST7612 FCGRT (probe ILMN_1705302): 6.92E-01
  AveExpr.ST7612 FGD2 (probe ILMN_2115005): 7.14E-01
  AveExpr.ST7612 FGF9 (probe ILMN_1762531): 7.84E-01
  AveExpr.ST7612 FHL1 (probe ILMN_1805842): 7.76E-01
  AveExpr.ST7612 FLJ22795 (probe ILMN_2150802): 8.56E-01
  AveExpr.ST7612 FOXC1 (probe ILMN_1738401): 8.63E-01
  AveExpr.ST7612 FOXO1 (probe ILMN_1738816): 8.61E-01
  AveExpr.ST7612 FOXO4 (probe ILMN_1712095): 6.93E-01
  AveExpr.ST7612 FSD1 (probe ILMN_1813490): 7.25E-01
  AveExpr.ST7612 FUCA1 (probe ILMN_1752728): 8.57E-01
  AveExpr.ST7612 G6PD (probe ILMN_1697559): 6.93E-01
  AveExpr.ST7612 GABARAPL2 (probe ILMN_1796458): 7.62E-01
  AveExpr.ST7612 GAMT (probe ILMN_1756469): 8.74E-01
  AveExpr.ST7612 GATM (probe ILMN_1729180): 7.75E-01
  AveExpr.ST7612 GCH1 (probe ILMN_1812759): 7.11E-01
  AveExpr.ST7612 GOLGB1 (probe ILMN_1747935): 7.13E-01
  AveExpr.ST7612 GPT2 (probe ILMN_1684158): 8.12E-01
  AveExpr.ST7612 GRN (probe ILMN_1724250): 8.24E-01
  AveExpr.ST7612 HABP4 (probe ILMN_2107991): 7.82E-01
  AveExpr.ST7612 HAGH (probe ILMN_1772731): 8.84E-01
  AveExpr.ST7612 HERC1 (probe ILMN_1786211): 7.40E-01
  AveExpr.ST7612 HERPUD1 (probe ILMN_2374159): 8.50E-01
  AveExpr.ST7612 HEY1 (probe ILMN_1788203): 8.91E-01
  AveExpr.ST7612 HEY2 (probe ILMN_1682034): 7.56E-01
  AveExpr.ST7612 HIST1H1C (probe ILMN_1757406): 8.24E-01
  AveExpr.ST7612 HIST2H2AA3 (probe ILMN_2144426): 8.03E-01
  AveExpr.ST7612 HLA-DPA1 (probe ILMN_1772218): 8.12E-01
  AveExpr.ST7612 HLA-DQA1 (probe ILMN_1808405): 8.25E-01
  AveExpr.ST7612 HLA-DRB4 (probe ILMN_1752592): 7.27E-01
  AveExpr.ST7612 HLA-E (probe ILMN_1765258): 8.07E-01
  AveExpr.ST7612 HLTF (probe ILMN_1673820): 7.48E-01
  AveExpr.ST7612 HOOK2 (probe ILMN_1682147): 7.36E-01
  AveExpr.ST7612 HSPA1B (probe ILMN_1660436): 7.16E-01
  AveExpr.ST7612 ID1 (probe ILMN_1664861): 7.75E-01
  AveExpr.ST7612 IFFO1 (probe ILMN_2348268): 8.07E-01
  AveExpr.ST7612 IGSF3 (probe ILMN_1704353): 8.50E-01
  AveExpr.ST7612 ITGB1 (probe ILMN_1714820): 7.06E-01
  AveExpr.ST7612 ITPKA (probe ILMN_1776516): 7.10E-01
  AveExpr.ST7612 JAK1 (probe ILMN_1793384): 7.91E-01
  AveExpr.ST7612 KLHL5 (probe ILMN_1706687): 8.05E-01
  AveExpr.ST7612 KLRAQ1 (probe ILMN_3271092): 7.11E-01
  AveExpr.ST7612 LCMT1 (probe ILMN_1688452): 7.21E-01
  AveExpr.ST7612 LCMT1 (probe ILMN_2336186): 7.52E-01
  AveExpr.ST7612 LMNA (probe ILMN_1737394): 7.98E-01
  AveExpr.ST7612 LOC151162 (probe ILMN_3238058): 7.72E-01
  AveExpr.ST7612 LOC253039 (probe ILMN_3236498): 8.10E-01
  AveExpr.ST7612 LOC283683 (probe ILMN_1659327): 8.30E-01
  AveExpr.ST7612 LOC388588 (probe ILMN_1749834): 7.07E-01
  AveExpr.ST7612 LOC654191 (probe ILMN_1762308): 7.84E-01
  AveExpr.ST7612 LOC727935 (probe ILMN_1691616): 7.14E-01
  AveExpr.ST7612 LOC728014 (probe ILMN_1711699): 8.58E-01
  AveExpr.ST7612 LOC729495 (probe ILMN_3297510): 7.45E-01
  AveExpr.ST7612 LOC730101 (probe ILMN_3305735): 7.41E-01
  AveExpr.ST7612 LOC730415 (probe ILMN_3228688): 6.95E-01
  AveExpr.ST7612 LOC731314 (probe ILMN_1785756): 8.31E-01
  AveExpr.ST7612 LOC100128163 (probe ILMN_3182893): 7.83E-01
  AveExpr.ST7612 LOC100131727 (probe ILMN_3292990): 7.73E-01
  AveExpr.ST7612 LOC100133583 (probe ILMN_3214389): 8.94E-01
  AveExpr.ST7612 LOC100133678 (probe ILMN_3249667): 8.11E-01
  AveExpr.ST7612 LOC100134361 (probe ILMN_3241081): 8.59E-01
  AveExpr.ST7612 LRCH4 (probe ILMN_2157075): 8.54E-01
  AveExpr.ST7612 LRRC1 (probe ILMN_1755383): 7.83E-01
  AveExpr.ST7612 LTA4H (probe ILMN_1690342): 7.50E-01
  AveExpr.ST7612 LYRM5 (probe ILMN_1744534): 7.90E-01
  AveExpr.ST7612 LYSMD4 (probe ILMN_2159859): 6.95E-01
  AveExpr.ST7612 MAP1LC3B (probe ILMN_1703244): 7.73E-01
  AveExpr.ST7612 MAP2K1 (probe ILMN_1694240): 7.15E-01
  AveExpr.ST7612 MAPRE2 (probe ILMN_1695276): 7.72E-01
  AveExpr.ST7612 MARCKSL1 (probe ILMN_1714433): 8.47E-01
  AveExpr.ST7612 MAST3 (probe ILMN_1738749): 7.21E-01
  AveExpr.ST7612 MNS1 (probe ILMN_2157240): 7.07E-01
  AveExpr.ST7612 MTE (probe ILMN_2136089): 8.56E-01
  AveExpr.ST7612 MYBL1 (probe ILMN_3241046): 7.69E-01
